Test results reported in PubChem BioAssay (NCI).
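Growth conditions: 96-well plates. Treatment: test compound, 48 hours, 5 concentrations. Analysis: linear interpolation between bracketing concentrations; unreached endpoints set to highest concentration. At the GI50, growth is halved. TGI denotes the concentration required for complete inhibition of growth.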

Columns and labels:
Experiment in all cases: inhibition of tumour cell growth, NCI panel, 48 h
[1] = tested on: A498 renal
[2] = tested on: UACC-62 melanoma
[3] = tested on: MOLT-4 leukemia
[4] = tested on: CAKI-1 renal
[5] = tested on: TK-10 renal
[6] = tested on: HCC-2998 colon
[7] = tested on: UO-31 renal
[8] = tested on: SK-MEL-2 melanoma
[9] = tested on: SNB-19 CNS
[10] = tested on: 786-0 renal

Row | Compound | GI50 [1] [µM] | TGI [1] [µM] | GI50 [2] [µM] | TGI [2] [µM] | GI50 [3] [nM] | TGI [3] [µM] | GI50 [4] [µM] | TGI [4] [µM] | GI50 [5] [µM] | TGI [5] [µM] | GI50 [6] [nM] | TGI [6] [µM] | GI50 [7] [nM] | TGI [7] [µM] | GI50 [8] [µM] | TGI [8] [µM] | GI50 [9] [µM] | TGI [9] [µM] | GI50 [10] [nM] | TGI [10] [µM]
1 | O=c1[nH]c2ccccc2n1C1CCNCC1 | 24.4 | > 100 | > 100 | > 100 | > 100000 | > 100 | > 100 | > 100 | > 100 | > 100 | > 100000 | > 100 | > 100000 | > 100 | > 100 | > 100 | > 100 | > 100 | > 100000 | > 100
2 | Cc1ccc(N)c(S)c1 | – | 38.6 | – | 32.7 | – | 47 | – | 85 | – | 43.1 | – | 88.1 | – | 26.7 | – | 31.5 | – | 36.7 | – | 29.6
3 | COc1cc2c(c3oc(-c4ccc(O)cc4)c(O)c(=O)c13)CCC(C)(C)O2 | 0.148 | 0.538 | 0.199 | 0.616 | 191 | – | 0.245 | 1.17 | 0.5 | > 100 | 254 | 0.672 | 28.1 | 0.075 | 0.326 | – | 0.16 | > 23.4 | 78.8 | 0.214
4 | CC(C)=CC[C@@H]1CC2(CC=C(C)C)C(=O)C(OC3(C(=O)c4ccccc4)C(=O)C4(CC=C(C)C)C[C@@H](CC=C(C)C)C(C)(C)C(CC=C(C)C)(C4=O)C3=O)(C(=O)c3ccccc3)C(=O)C(CC=C(C)C)(C2=O)C1(C)C (some centres undefined) | 1.01 | 2.09 | 0.878 | 1.98 | 1300 | 4.51 | 1.49 | 5.95 | 1.54 | 8.04 | 1210 | 3.09 | 1280 | 4.82 | 1.01 | 3.04 | 1.64 | 6.65 | 963 | 2.61
5 | O=C(/C=C/c1ccccc1)NC1C=Nc2ccc([N+](=O)[O-])cc2NC1=O (centres undefined) | – | > 100 | – | > 100 | – | > 100 | – | > 100 | – | > 100 | – | > 100 | – | > 100 | – | > 100 | – | > 100 | – | > 100
6 | Cn1ncnc1[C@@H]1c2n[nH]c(=O)c3cc(F)cc(c23)N[C@H]1c1ccc(F)cc1 | > 100 | > 100 | > 100 | > 100 | > 100000 | > 100 | 91.5 | > 100 | > 100 | > 100 | > 100000 | > 100 | 83300 | > 100 | > 100 | > 100 | > 100 | > 100 | > 100000 | > 100
7 | Cc1cc(I)cc(CNCCN(C)C)c1O | 61.5 | > 100 | 19.7 | 39.2 | 44600 | > 100 | 50.1 | > 100 | > 91.6 | > 100 | 35100 | > 100 | 60500 | > 100 | > 77.2 | > 100 | > 100 | > 100 | > 92200 | > 100
8 | NS(=O)(=O)c1ccc(N(/C=C/C(=O)C(F)(F)F)CC(=O)c2ccc(F)cc2)cc1 | 0.0281 | 0.54 | 17.6 | 31.9 | 20000 | 72.5 | 22.6 | 56.9 | 25.9 | > 100 | 17700 | 33.8 | 31900 | > 100 | 26.1 | 55.2 | 53.8 | > 100 | 44700 | > 100
9 | CNC(=O)Oc1cc(C(C)C)ccc1Sc1ccc(C(C)C)cc1OC(=O)NC | 12 | 25 | 4.24 | 16.5 | 2960 | 20.1 | 3.34 | 17.1 | 14 | 30.3 | 12200 | 27.7 | 3280 | 16.6 | 4.21 | 17.3 | 9.57 | 24.4 | 11500 | 28.7
10 | COC(=O)C(=O)C(C#N)c1nc2ccccc2s1 (centres undefined) | – | > 100 | – | > 100 | – | > 100 | – | > 100 | – | > 100 | – | > 100 | – | > 100 | – | > 100 | – | > 100 | – | > 100
11 | C=C(CO)C(=O)OC1CC(=C)C2CC(O)C(C)C2C2OC(=O)C(=C)C12 (centres undefined) | – | > 100 | – | 35.3 | – | 64.6 | – | 36.6 | – | 33.2 | – | 40.9 | – | 36.6 | – | 32 | – | 61.6 | – | > 100
12 | Cn1cc(C2=C(c3ccsc3)C(=O)NC2=O)c2ccccc21 | 12.1 | > 25 | > 25 | > 25 | > 25000 | > 25 | > 25 | > 25 | > 25 | > 25 | > 25000 | > 25 | 8490 | > 25 | > 25 | > 25 | > 25 | > 25 | > 25000 | > 25
13 | COc1cc(/C=C/C(=O)c2cccc(-n3cc(-c4ccccc4)[nH]c3=O)c2)cc(OC)c1OC | 2.65 | 6.63 | 1.52 | 2.98 | 1800 | > 100 | 1.75 | 4.57 | 3.02 | 9.35 | 1260 | 2.51 | 1510 | 4.56 | 2.06 | 4.98 | 2.35 | 5.69 | 1380 | 2.97
14 | Cc1ccc(S(=O)c2ccccc2[N+](=O)[O-])cc1 (centres undefined) | – | 88.1 | – | > 100 | – | > 100 | – | > 100 | – | > 100 | – | > 100 | – | > 100 | – | > 100 | – | > 100 | – | > 100
15 | CN(C)CC1CC/C(=C\c2ccc(Cl)c(Cl)c2)C1=O (centres undefined) | – | 73.6 | – | 31.5 | – | 19 | – | 56.1 | – | 19.9 | – | > 58.5 | – | > 55.9 | – | > 62.9 | – | > 56.1 | – | 26.7
16 | CC(C)=CCC/C(C)=C/CC/C(C)=C/CSC[C@H](NC(=O)CCCCCN1CCN(C)CC1)C(=O)NC1CCCCCC1 | 3.76 | 16.7 | 1.78 | 3.44 | 2690 | 7.48 | 2.84 | 9.19 | 4.4 | 9.11 | 1840 | 3.61 | 1580 | 3.22 | 2.24 | 4.42 | 2.02 | 4.43 | 1770 | 3.19
17 | COc1ccc(C2=NN(C(N)=S)C(c3ccc4c(c3)OCO4)C2)cc1 (centres undefined) | 2.24 | 9.07 | 3.79 | 21.1 | 3020 | 34.5 | 2.6 | 8.91 | 2.47 | 9.54 | 2300 | 5.85 | 1910 | 7.99 | 3.12 | 38.9 | 3.13 | 22.8 | 3800 | > 100
18 | CCC(=C(c1ccc(OCCN2CCCCC2)cc1)c1ccc(OCCN2CCCCC2)cc1)c1ccc(Cl)cc1 | > 16.7 | > 16.7 | 3.09 | 6.2 | 2770 | > 16.7 | 5.74 | > 16.7 | > 16.7 | > 16.7 | 2800 | > 16.7 | 2320 | 7.87 | 9.5 | > 16.7 | 5.91 | > 16.7 | 2510 | 5.09
19 | CC(C)(CN1CCCCC1)C(=O)/C=C/c1ccccc1 | – | 57.8 | – | 53.2 | – | 41.4 | – | 48 | – | 30.5 | – | 27.9 | – | 39.6 | – | 28.9 | – | 34.6 | – | 27.3
20 | N#CCCNc1nonc1-c1nc2ccccc2n1CC(=O)c1ccc(N)cc1 | < 0.01 | 0.0873 | < 0.0154 | > 100 | 30.1 | – | 0.0701 | > 100 | – | > 90.9 | 33.8 | > 100 | 282 | > 100 | 0.498 | – | – | > 100 | 41.7 | > 100
